The NIST ThermoML archive (doi:10.1021/acs.jced.8b00157)
Where “and” joins values, the source holds several entries; their conditions need not be identical. Equal entries are not always repeated. Numbers after ± are expanded uncertainties.

Assay: an = ratio of the nth substance listed
Conditions: 100 kPa, Liquid, Buoyancy - hydrostatic balance, a2 = 1.7

[F][Al]([F])[F] [aluminum fluoride] + [F-].[K+]
Conditions	mass density
1188.2 K	1843 ± 10 kg/m3
1188.4 K	1842 ± 11 kg/m3
1188.6 K	1842 ± 10 kg/m3
1189.2 K	1841 ± 10 kg/m3
1189.7 K	1841 ± 11 kg/m3
1189.8 K	1841 ± 10 kg/m3
1190.6 K	1840 ± 10 kg/m3
1190.7 K	1840 ± 10 kg/m3
1190.9 K	1840 ± 10 kg/m3
1191.6 K	1839 ± 10 kg/m3 and 1840 ± 10 kg/m3
1191.7 K	1839 ± 10 kg/m3
1191.8 K	1840 ± 10 kg/m3
1192.2 K	1839 ± 10 kg/m3
1192.4 K	1838 ± 10 kg/m3
1192.7 K	1838 ± 10 kg/m3
1192.8 K	1838 ± 10 kg/m3
1193 K	1839 ± 10 kg/m3
1193.8 K	1837 ± 10 kg/m3
1194 K	1838 ± 10 kg/m3
1194.2 K	1837 ± 10 kg/m3
1194.6 K	1837 ± 10 kg/m3
1194.9 K	1837 ± 11 kg/m3
1195.3 K	1836 ± 11 kg/m3
1195.6 K	1835 ± 10 kg/m3 and 1837 ± 10 kg/m3
1195.9 K	1835 ± 10 kg/m3
1196.1 K	1836 ± 10 kg/m3
1196.3 K	1835 ± 10 kg/m3
1196.5 K	1835 ± 10 kg/m3
1197.1 K	1835 ± 10 kg/m3
1197.5 K	1834 ± 10 kg/m3
1197.7 K	1834 ± 11 kg/m3
1197.8 K	1834 ± 11 kg/m3 and 1835 ± 11 kg/m3
1198.1 K	1834 ± 11 kg/m3
1198.4 K	1833 ± 11 kg/m3
1198.9 K	1833 ± 11 kg/m3
1199.6 K	1832 ± 11 kg/m3
1199.9 K	1833 ± 10 kg/m3
1200.2 K	1832 ± 11 kg/m3
1200.5 K	1831 ± 10 kg/m3
1200.7 K	1832 ± 11 kg/m3
1200.8 K	1831 ± 10 kg/m3 and 1832 ± 10 kg/m3
1201.4 K	1830 ± 11 kg/m3
1201.7 K	1830 ± 11 kg/m3 and 1831 ± 11 kg/m3
1202.1 K	1831 ± 11 kg/m3
1202.2 K	1832 ± 11 kg/m3
1202.4 K	1830 ± 11 kg/m3 and 1831 ± 11 kg/m3
1202.9 K	1829 ± 11 kg/m3 and 1831 ± 11 kg/m3
1203 K	1829 ± 11 kg/m3
1203.6 K	1829 ± 11 kg/m3
1203.8 K	1828 ± 11 kg/m3
1203.9 K	1828 ± 11 kg/m3
1204 K	1828 ± 11 kg/m3 and 1829 ± 11 kg/m3
1204.3 K	1828 ± 11 kg/m3
1204.6 K	1827 ± 10 kg/m3
1204.7 K	1827 ± 10 kg/m3
1205 K	1826 ± 11 kg/m3
1205.6 K	1826 ± 11 kg/m3
1205.8 K	1826 ± 11 kg/m3
1206 K	1827 ± 11 kg/m3
1206.3 K	1826 ± 11 kg/m3
1206.6 K	1826 ± 11 kg/m3
1206.7 K	1825 ± 11 kg/m3
1207 K	1826 ± 11 kg/m3
1207.1 K	1825 ± 11 kg/m3
1207.3 K	1824 ± 10 kg/m3
1207.5 K	1825 ± 10 kg/m3
1207.6 K	1824 ± 10 kg/m3
1207.8 K	1824 ± 11 kg/m3
1207.9 K	1825 ± 11 kg/m3
1208.2 K	1824 ± 12 kg/m3
1208.4 K	1823 ± 11 kg/m3
1208.5 K	1823 ± 11 kg/m3
1208.7 K	1822 ± 10 kg/m3
1209.3 K	1823 ± 10 kg/m3
1209.7 K	1823 ± 11 kg/m3
1209.8 K	1823 ± 11 kg/m3
1210.1 K	1821 ± 11 kg/m3
1210.2 K	1822 ± 11 kg/m3
1210.5 K	1821 ± 11 kg/m3
1211 K	1822 ± 11 kg/m3
1211.2 K	1822 ± 11 kg/m3
1211.3 K	1822 ± 11 kg/m3
1211.4 K	1821 ± 11 kg/m3
1211.7 K	1821 ± 11 kg/m3 and 1820 ± 11 kg/m3
1211.8 K	1822 ± 11 kg/m3
1211.9 K	1821 ± 11 kg/m3 and 1819 ± 11 kg/m3
1212.3 K	1820 ± 11 kg/m3 and 1819 ± 11 kg/m3
1212.6 K	1819 ± 11 kg/m3
1212.9 K	1820 ± 11 kg/m3
1213.1 K	1820 ± 11 kg/m3
1213.3 K	1820 ± 11 kg/m3
1213.5 K	1819 ± 11 kg/m3
1213.7 K	1820 ± 11 kg/m3
1213.8 K	1819 ± 11 kg/m3
1214 K	1819 ± 12 kg/m3 and 1818 ± 12 kg/m3
1214.2 K	1817 ± 11 kg/m3
1214.6 K	1819 ± 11 kg/m3
1214.7 K	1819 ± 11 kg/m3
1215.1 K	1819 ± 11 kg/m3
1215.2 K	1819 ± 11 kg/m3 and 1816 ± 11 kg/m3
1215.5 K	1818 ± 11 kg/m3
1215.6 K	1816 ± 11 kg/m3
1216 K	1815 ± 12 kg/m3
1216.7 K	1814 ± 11 kg/m3
1217 K	1814 ± 11 kg/m3
1217.5 K	1813 ± 12 kg/m3
1218.2 K	1813 ± 11 kg/m3
1218.7 K	1812 ± 11 kg/m3
1219.2 K	1811 ± 13 kg/m3 and 1812 ± 12 kg/m3
1220.3 K	1810 ± 11 kg/m3
1220.6 K	1809 ± 13 kg/m3
1220.9 K	1810 ± 13 kg/m3
1221.8 K	1809 ± 11 kg/m3
1222.2 K	1808 ± 11 kg/m3
1222.3 K	1808 ± 11 kg/m3
1222.7 K	1807 ± 12 kg/m3
1223.3 K	1807 ± 11 kg/m3
1223.7 K	1805 ± 12 kg/m3
1223.8 K	1806 ± 11 kg/m3
